Target: recombinant human DPP-4 (Homo sapiens, UniProt P27487)
Experiment: recombinant human DPP-4 fluorogenic substrate cleavage assay
Assay type: biochemical
Conditions: compound 10 uM, substrate (H-Ala-Pro)-2-Rh110 10 μM, 1 hour pre-incubation, room temperature; for inhibition at 10 µM: read-out: % Inhib at 10 uM
Experimental: For compound screening, the assay employed measures the activity of recombinant human DPP-4 to cleave the synthetic fluorogenic substrate (H-Ala-Pro)-2—Rh110. The reaction is run in 384-well plates. Compound solutions in assay buffer are pre-incubated with the human recombinant DPP-4 and the reaction is initiated by the addition of the substrate. The product of the reaction is quantified by measuring the fluorescence intensity using Tecan Ultraplate reader. For each compound concentration tested, the percent of inhibition is calculated.
For the determination of IC50 and/or % of inhibition values, the assay is performed at room temperature in 384-well plates using a TECAN Ultra plate reader. Total assay volume is 30 μl. Test compounds are dissolved in 90% (v/v) DMSO/water and diluted in water containing 0.05% (w/v) CHAPS to 3-times the desired assay concentration. For the assay, 10 μl water/CHAPS (±test compound) are added per well, followed by the addition of 10 μl hDPP4 solution (diluted with 1.5× assay buffer, i.e. 37.5 mM Tris/HCl, pH 7.4, 210 mM NaCl, 15 mM KCl, and 0.05% (w/v) CHAPS). The final assay concentrations are […] for hDPP4 according to the enzyme concentrations determined by the Bradford method. After 1 hour of pre-incubation at room temperature, the reaction is started by the addition of 10 μl substrate solution (substrate dilutes in 1.5× assay buffer, final substrate concentration is 10 μM). The effect of the compound on the enzymatic activity is obtained from the linear progression curves and determined from two readings, the first one taken directly after the addition of substrate (t=0 min) and the second one after 1 hour (t=60 min). The apparent inhibition constant, IC50, is calculated from the plot of percentage of inhibition vs. inhibitor concentration using non-linear regression analysis software (XLfit, Vers. 4.0; ID Business Solution Ltd., Guildford, Surrey, UK).

Sequence of recombinant human DPP-4 (P27487 whole entry): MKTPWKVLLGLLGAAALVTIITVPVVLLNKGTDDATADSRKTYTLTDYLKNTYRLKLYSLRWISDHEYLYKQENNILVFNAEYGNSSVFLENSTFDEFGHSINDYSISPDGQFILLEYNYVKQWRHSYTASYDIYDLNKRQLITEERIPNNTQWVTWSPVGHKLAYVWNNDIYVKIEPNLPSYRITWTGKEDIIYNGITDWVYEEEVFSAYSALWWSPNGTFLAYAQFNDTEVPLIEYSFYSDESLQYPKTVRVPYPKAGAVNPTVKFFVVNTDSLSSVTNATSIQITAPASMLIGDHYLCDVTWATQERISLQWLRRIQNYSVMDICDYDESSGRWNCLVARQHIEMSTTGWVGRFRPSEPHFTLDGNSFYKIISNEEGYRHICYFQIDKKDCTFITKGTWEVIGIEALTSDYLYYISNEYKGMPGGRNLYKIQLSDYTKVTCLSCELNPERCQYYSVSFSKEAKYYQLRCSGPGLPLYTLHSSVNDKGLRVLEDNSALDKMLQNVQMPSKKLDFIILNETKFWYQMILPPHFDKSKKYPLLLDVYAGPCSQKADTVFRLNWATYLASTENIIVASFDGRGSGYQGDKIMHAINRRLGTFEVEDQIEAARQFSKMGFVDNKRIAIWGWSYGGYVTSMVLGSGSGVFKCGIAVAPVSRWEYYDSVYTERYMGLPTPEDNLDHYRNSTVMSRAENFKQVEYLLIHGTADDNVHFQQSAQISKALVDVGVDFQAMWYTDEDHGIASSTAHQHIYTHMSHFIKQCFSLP

| SMILES | inhibition at 10 µM | % Inhib at 10 uM |
| --- | --- | --- |
| COc1ccc(C2CCCN(CC[C@H](N)Cc3cc(F)c(F)cc3F)C2)cc1 (stereo partly drawn) [Compound 2, (R)-3-[3-(4-Methoxy-phenyl)-piperidin-1-yl]-1-(2,4,5-trifluoro-benzyl)-propylamine] | 99.5% | – |
| COc1cccc(C2CCCN(CC[C@H](N)Cc3cc(F)c(F)cc3F)C2)c1 (stereo partly drawn) [Compound 3, (R)-3-[3-(3-Methoxy-phenyl)-piperidin-1-yl]-1-(2,4,5-trifluoro-benzyl)-propylamine] | 97.9% | – |
| N[C@@H](CCN1CCCC(c2ccc(C(F)(F)F)cc2)C1)Cc1cc(F)c(F)cc1F (stereo partly drawn) [Compound 5, (R)-1-(2,4,5-Trifluoro-benzyl)-3-[3-(4-trifluoromethyl-phenyl)-piperidin-1-yl]-propylamine] | 99.3% | – |
| N[C@@H](CCN1CCCC(c2cccc(C(F)(F)F)c2)C1)Cc1cc(F)c(F)cc1F (stereo partly drawn) [Compound 6, (R)-1-(2,4,5-Trifluoro-benzyl)-3-[3-(3-trifluoromethyl-phenyl)-piperidin-1-yl]-propylamine] | 98.9% | – |
| N[C@@H](CCN1CCCC(c2ccc(F)cc2)C1)Cc1cc(F)c(F)cc1F (stereo partly drawn) [Compound 11, (R)-3-[3-(4-Fluoro-phenyl)-piperidin-1-yl]-1-(2,4,5-trifluoro-benzyl)-propylamine] | 99.6% | – |
| N[C@@H](CCN1CCCC(c2cccc(F)c2)C1)Cc1cc(F)c(F)cc1F (stereo partly drawn) [Compound 12, (R)-3-[3-(3-Fluoro-phenyl)-piperidin-1-yl]-1-(2,4,5-trifluoro-benzyl)-propylamine] | 99.7% | – |
| N[C@@H](CCN1CCC(c2ccccc2)C1)Cc1cc(F)c(F)cc1F (stereo partly drawn) [Compound 14, (R)-3-(3-Phenyl-pyrrolidin-1-yl)-1-(2,4,5-trifluoro-benzyl)-propylamine] | 99.6% | – |
| N[C@@H](CCN1CCC(c2cccc(Cl)c2)C1)Cc1cc(F)c(F)cc1F (stereo partly drawn) [Compound 15, (R)-3-[3-(3-Chloro-phenyl)-pyrrolidin-1-yl]-1-(2,4,5-trifluoro-benzyl)-propylamine] | 99.3% | – |
| COc1ccc(C2CCN(CC[C@H](N)Cc3cc(F)c(F)cc3F)C2)cc1 (stereo partly drawn) [Compound 17, (R)-3-[3-(4-Methoxy-phenyl)-pyrrolidin-1-yl]-1-(2,4,5-trifluoro-benzyl)-propylamine] | 98.4% | – |
| COc1cccc(C2CCN(CC[C@H](N)Cc3cc(F)c(F)cc3F)C2)c1 (stereo partly drawn) [Compound 18, (R)-3-[3-(3-Methoxy-phenyl)-pyrrolidin-1-yl]-1-(2,4,5-trifluoro-benzyl)-propylamine] | 99.2% | – |
| N[C@@H](CCN1CCC(c2ccc(C(F)(F)F)cc2)C1)Cc1cc(F)c(F)cc1F (stereo partly drawn) [Compound 20, (R)-1-(2,4,5-Trifluoro-benzyl)-3-[3-(4-trifluoromethyl-phenyl)-pyrrolidin-1-yl]-propylamine] | 99.1% | – |
| N[C@@H](CCN1CCC(c2ccc(F)cc2)C1)Cc1cc(F)c(F)cc1F (stereo partly drawn) [Compound 21, (R)-3-[3-(4-Fluoro-phenyl)-pyrrolidin-1-yl]-1-(2,4,5-trifluoro-benzyl)-propylamine] | 99.6% | – |
| N[C@@H](CCN1CCC(c2cccc(F)c2)C1)Cc1cc(F)c(F)cc1F (stereo partly drawn) [Compound 22, (R)-3-[3-(3-Fluoro-phenyl)-pyrrolidin-1-yl]-1-(2,4,5-trifluoro-benzyl)-propylamine] | 99.6% | – |
| N[C@@H](CCN1CCCCC1)Cc1cc(F)c(F)cc1F [Compound 24, (R)-3-Piperidin-1-yl-1-(2,4,5-trifluoro-benzyl)-propylamine] | 99.3% | – |
| CC1CCCN(CC[C@H](N)Cc2cc(F)c(F)cc2F)C1 (stereo partly drawn) [Compound 25, (R)-3-(3-Methyl-piperidin-1-yl)-1-(2,4,5-trifluoro-benzyl)-propylamine] | 98.6% | – |
| COCC1CCCN(CC[C@H](N)Cc2cc(F)c(F)cc2F)C1 (stereo partly drawn) [Compound 26, (R)-3-(3-Methoxymethyl-piperidin-1-yl)-1-(2,4,5-trifluoro-benzyl)-propylamine] | 99.5% | – |
| N[C@@H](CCN1CCCC(c2ccc3c(c2)OCO3)C1)Cc1cc(F)c(F)cc1F (stereo partly drawn) [Compound 27, (R)-3-(3-Benzo[1,3]dioxol-5-yl-piperidin-1-yl)-1-(2,4,5-trifluoro-benzyl)-propylamine] | 99.7% | – |
| N[C@@H](CCN1CCCC1)Cc1cc(F)c(F)cc1F [Compound 28, (R)-3-Pyrrolidin-1-yl-1-(2,4,5-trifluoro-benzyl)-propylamine] | 99.1% | – |
| N[C@@H](CCN1CC[C@H](c2ccc(F)cc2)C1)Cc1cc(F)c(F)cc1F [Compound 29] | – | 99.4% |

More lines, now with the values ahead:

| inhibition at 10 µM | % Inhib at 10 uM | SMILES |
| --- | --- | --- |
| 99.9% | – | N[C@@H](CCN1CCCC(c2ccccc2)C1)Cc1cc(F)c(F)cc1F (stereo partly drawn) [Compound 1, (R)-3-(3-Phenyl-piperidin-1-yl)-1-(2,4,5-trifluoro-benzyl)-propylamine] |
| 98.9% | – | COc1ccccc1C1CCCN(CC[C@H](N)Cc2cc(F)c(F)cc2F)C1 (stereo partly drawn) [Compound 4, (R)-3-[3-(2-Methoxy-phenyl)-piperidin-1-yl]-1-(2,4,5-trifluoro-benzyl)-propylamine] |
| 98.3% | – | N[C@@H](CCN1CCCC(c2ccccc2C(F)(F)F)C1)Cc1cc(F)c(F)cc1F (stereo partly drawn) [Compound 7, (R)-1-(2,4,5-Trifluoro-benzyl)-3-[3-(2-trifluoromethyl-phenyl)-piperidin-1-yl]-propylamine] |
| 99.6% | – | Cc1ccc(C2CCCN(CC[C@H](N)Cc3cc(F)c(F)cc3F)C2)cc1 (stereo partly drawn) [Compound 8, (R)-3-(3-p-Tolyl-piperidin-1-yl)-1-(2,4,5-trifluoro-benzyl)-propylamine] |
| 99.7% | – | Cc1cccc(C2CCCN(CC[C@H](N)Cc3cc(F)c(F)cc3F)C2)c1 (stereo partly drawn) [Compound 9, (R)-3-(3-m-Tolyl-piperidin-1-yl)-1-(2,4,5-trifluoro-benzyl)-propylamine] |
| 99.4% | – | Cc1ccccc1C1CCCN(CC[C@H](N)Cc2cc(F)c(F)cc2F)C1 (stereo partly drawn) [Compound 10, (R)-3-(3-o-Tolyl-piperidin-1-yl)-1-(2,4,5-trifluoro-benzyl)-propylamine] |
| 99.5% | – | N[C@@H](CCN1CCC(c2ccccc2Cl)C1)Cc1cc(F)c(F)cc1F (stereo partly drawn) [Compound 16, (R)-3-[3-(2-Chloro-phenyl)-pyrrolidin-1-yl]-1-(2,4,5-trifluoro-benzyl)-propylamine] |
| 99.2% | – | COc1ccccc1C1CCN(CC[C@H](N)Cc2cc(F)c(F)cc2F)C1 (stereo partly drawn) [Compound 19, (R)-3-[3-(2-Methoxy-phenyl)-pyrrolidin-1-yl]-1-(2,4,5-trifluoro-benzyl)-propylamine] |
| 99.5% | – | N[C@@H](CCN1CCC(c2ccccc2F)C1)Cc1cc(F)c(F)cc1F (stereo partly drawn) [Compound 23, (R)-3-[3-(2-Fluoro-phenyl)-pyrrolidin-1-yl]-1-(2,4,5-trifluoro-benzyl)-propylamine] |

Source: patent US20100076024A1, “Novel Compounds as Serine Protease Inhibitors” (priority 2007, published 2010)
